The record followed here is ChEMBL document CHEMBL3612061, “Imidazopyridines as a source of biological activity and their pharmacological potentials-Infrared and Raman spectroscopic evidence of their content in pharmaceuticals and plant materials” (Bioorg Med Chem, 2015).

For the assay, the system named is Vaccinia virus. The assay can be described thus: Antiviral activity against Vaccinia virus assessed as protection against virus-induced cytopathogenic effect by cell based assay. The class given is functional. The following applies: Orthopoxvirus vaccinia; read-out: ID50 (the source's name).

Values after ≈ are worked out from the molar mass of the structure shown.

On to `Nc1nccc2c1ncn2C1C=C(CO)C(O)C1O` (stereo unspecified) [3-DEAZANEPLANOCIN A], for which the IC50 amounted to 0.02 µg/mL (≈ 0.0763 µM).
